The conditions of series [1]: for IUP ED5 mmHg: dose producing 5 mmHg increase in IUP; for Selectivity ratio MAP ED20/IUP ED5: calculated for each dog and then averaged.
Source text: Intraurethral Pressure in Dogs (IUP-MAP test)
Female Beagle dogs (Marshall Farms, North Rose, N.Y.) greater that 2 years of age and weighing between 12 and 15 kg were used in these studies. At least 2 weeks prior to any agonist dosing, dogs were instrumented for the chronic measurement of arterial blood pressure by implanting a telemetry transducer/transmitter (TA11PA-C40, Data Sciences International, St. Paul, Minn.) into a carotid artery.
On the test day, dogs fasted since the previous afternoon were pre-anesthetized with thiopental sodium 15 mg/kg i.v. (Pentothal™, Abbott) and intubated. Anesthesia was maintained by allowing the dog to spontaneously breathe a mixture of isoflurane (2.5 to 3 volume %) and oxygen delivered by a Narkomed Standard anesthesia system (North American Drager, Telford, Pa.). An Abbocath-T™ i.v. catheter (18-G, Abbott Laboratories, Abbott Park, Ill.) was inserted into the cephalic vein for the administration of agonists. A telemetry receiver (RA1310, DataSciences) was placed under the head of each dog and was interfaced to a computerized data acquisition system (Modular Instruments Inc.(MI2), Malvern, Pa.) which allowed for the continuous calibrated recording of arterial blood pressure which was electronically filtered to determine its mean value (MAP).
Briefly, a 7 Fr catheter balloon catheter (41224-01, Abbott) was inserted into the urethral orifice and advanced approximately 15 cm until the tip was well inside the bladder. The balloon was then inflated with 1 ml of room air and the catheter slowly withdrawn until resistance (corresponding to the bladder neck) was evident. The balloon was then deflated and the catheter withdrawn an additional 2 cm. The balloon was then reinflated and its catheter port connected to a Gould Statham P23Dd pressure transducer interfaced to a computerized data acquisition system (Modular Instruments, Inc., Malvern, Pa.) for the measurement of intraurethral pressure (IUP). The MAP and IUP pressor responses to increasing iv doses of test agonists were obtained simultaneously. The pressor effects of each dose were allowed to return to baseline before the next dose was given.
The dose required to elicit significant and clinically meaningful changes in IUP (5 mm Hg) relative to the dose required to elicit a physiologically significant increase in blood pressure (20 mm Hg) is calculated.
IUP and MAP pressor effects of each agonist dose were expressed as the maximum net change in each pressure over pre-dose baseline levels. Subsequently, the effective doses required to produce a 5 mmHg increase in IUP (IUP ED5mmHg) and a 20 mmHg increase in MAP (MAP ED20mmHg) were estimated from the dose response data from each dog. Relative urethral versus vascular selectivity of each agonist in each dog was estimated using a ratio of these respective potency indices (MAP ED20mmHg/IUP ED5mmHg).
Data are expressed as means (±S.E.M) and all doses are in nmol/kg, i.v.
Series [2] addresses T1, α1A adrenoceptor subtype (rabbit urethra) (Oryctolagus cuniculus, UniProt O02824).
T1 sequence (O02824 1-466): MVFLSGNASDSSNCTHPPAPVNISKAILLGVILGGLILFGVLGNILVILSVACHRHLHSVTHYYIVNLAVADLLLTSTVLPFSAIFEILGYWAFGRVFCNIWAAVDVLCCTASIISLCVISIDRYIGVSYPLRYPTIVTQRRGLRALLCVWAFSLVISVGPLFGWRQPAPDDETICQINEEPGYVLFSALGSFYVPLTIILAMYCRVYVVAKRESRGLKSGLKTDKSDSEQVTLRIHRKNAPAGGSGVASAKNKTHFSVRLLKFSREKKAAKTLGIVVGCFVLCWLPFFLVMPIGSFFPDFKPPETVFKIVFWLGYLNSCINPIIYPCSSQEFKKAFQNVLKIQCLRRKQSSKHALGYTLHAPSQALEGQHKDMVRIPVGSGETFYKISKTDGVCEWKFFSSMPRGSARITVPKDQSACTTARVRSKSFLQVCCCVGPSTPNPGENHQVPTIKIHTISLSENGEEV
In words: Rabbit urethra tissue bath, agonism. The note with it: for α1A efficacy: percent of phenylephrine (100%) contraction. The text has this:
(§1) Quantitative analysis of agonist and antagonist action is the basis of receptor classification and drug design. […] The interaction of an agonist with a receptor may be characterized by two quantities, affinity and efficacy. These quantities can be estimated by generating two concentration response curves and fitting the data to a four parameter curve smoothing routine. The first curve is a reference standard followed by a thorough rinsing and a second curve generated using the test agent. […] Agonist potency (pD2) is expressed as the negative log10 of the EC50. The efficacy is determined by comparing the maximum value of the test agent to the maximum value of the reference agent and expressed as a % of maximum response.
(§2) A cumulative concentration protocol was employed. […] Br. J. Pharmacol. 14, 48-58.
The efficacy of the compounds are compared as a percent of phenylephrine (100%) contraction.

The target in series [3] is T2, α1D adrenoceptor subtype (rat aorta) (Rattus norvegicus, UniProt P23944).
T2 sequence (P23944 1-561): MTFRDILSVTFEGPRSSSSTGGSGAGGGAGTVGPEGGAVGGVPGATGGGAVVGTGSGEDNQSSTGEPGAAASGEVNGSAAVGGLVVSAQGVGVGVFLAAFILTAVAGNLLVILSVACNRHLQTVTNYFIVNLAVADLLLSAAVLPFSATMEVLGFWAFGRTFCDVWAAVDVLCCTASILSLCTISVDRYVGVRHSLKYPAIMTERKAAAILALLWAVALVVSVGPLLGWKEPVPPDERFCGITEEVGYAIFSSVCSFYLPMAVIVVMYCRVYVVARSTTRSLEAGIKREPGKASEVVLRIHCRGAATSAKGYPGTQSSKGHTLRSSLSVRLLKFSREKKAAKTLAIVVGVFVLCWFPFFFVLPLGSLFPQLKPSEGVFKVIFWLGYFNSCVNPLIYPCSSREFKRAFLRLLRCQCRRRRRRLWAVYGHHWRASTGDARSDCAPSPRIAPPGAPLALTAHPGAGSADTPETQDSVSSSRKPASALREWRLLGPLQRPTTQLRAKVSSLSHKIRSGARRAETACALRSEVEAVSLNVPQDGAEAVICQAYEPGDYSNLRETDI
In words: Rat aorta tissue bath, agonism. The note with it: for α1D efficacy: percent of phenylephrine (100%) contraction.
Source text: as §1, §2

Series [4] addresses T3, α1B adrenoceptor subtype (rat spleen) (Rattus norvegicus, UniProt P15823).
T3 sequence (P15823 1-515): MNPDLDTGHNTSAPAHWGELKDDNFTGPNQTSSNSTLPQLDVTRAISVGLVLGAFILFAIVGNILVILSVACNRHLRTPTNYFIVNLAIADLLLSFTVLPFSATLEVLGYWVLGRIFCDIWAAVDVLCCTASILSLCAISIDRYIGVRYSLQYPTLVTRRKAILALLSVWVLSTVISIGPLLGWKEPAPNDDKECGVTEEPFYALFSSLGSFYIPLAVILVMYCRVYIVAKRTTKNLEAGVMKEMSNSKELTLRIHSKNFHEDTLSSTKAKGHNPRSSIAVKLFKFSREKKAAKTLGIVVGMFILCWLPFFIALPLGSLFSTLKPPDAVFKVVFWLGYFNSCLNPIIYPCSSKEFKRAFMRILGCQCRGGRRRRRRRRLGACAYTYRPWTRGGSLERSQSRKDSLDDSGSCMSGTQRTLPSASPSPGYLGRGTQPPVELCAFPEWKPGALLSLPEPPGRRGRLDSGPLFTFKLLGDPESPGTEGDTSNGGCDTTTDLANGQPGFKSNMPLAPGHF
In words: Rat spleen tissue bath, agonism. On the set-up: The spleen was split longitudinally into two preparations per rat; from tissue; host or cells: rat spleen.
Source text: as §1, §2
(§3) The spleen was split longitudinally into two preparations per rat.

The target in series [5] is T2, α1D adrenoceptor subtype (rat aorta). The following applies: for type of antagonism at α1D: based on slope and regression (r) of Schild plot; for α1D r (regression of Schild plot) / α1D slope (Schild plot): rat aorta.
Source text: (§4) The interaction of an antagonist with a receptor can be characterized by an affinity constant, pA2. The affinity unit, pA2, can be defined as negative logarithm to base 10 of the molar concentration of antagonist drug that will reduce the effect of the reference agonist by 50%. […] The fractional increase in agonist concentration required to overcome the effects of the antagonist should be independent of the agonist concentration. Secondly, the affinity of the antagonist should be independent of concentration, therefore the Schild plot should have a slope of unity. Thirdly, the antagonist affinity should be independent of the agonist used.
(§5) The urethra was removed with the urinary bladder and immediately placed into Krebs Ringer bicarbonate solution with the following mM concentrations: 120 NaCl, 18.0 NaHCO3, 11.0 dextrose, 4.7 KCl, 2.5 CaCl2, 1.5 MgSO4, 1.2 KH2PO4 and equilibrated with 5% CO2:95% O2. The pH was adjusted to 7.2 at 25° C. by titrating with a saturated solution of NaHCO3. The pH increased to 7.4 at 37° C. Propranolol (0.004 mM) was included in all of the assays to block β-adrenoceptors. […] One end was fixed to a stationary glass rod and the other to a Grass FT03 transducer at a basal preload of 1.0 g of tension. Data was recorded on a Grass model-7 polygraph. Tissues were rinsed every 10 minutes for a total of 45-60 minutes. The urethra was primed once with 80 mM KCl, rinsed to basal tension and again with 10 μM phenylephrine (PE). After an additional 60 minute equilibration period a reference concentration response curve was generated for each tissue using PE as the reference agonist. A cumulative concentration protocol was employed. Following a 75 minute washout period a second response curve was then generated in the same fashion using the test agent. The amount of agent necessary to cause a 50% response (ED50) was calculated using “AGANTG” (Zielinski, P. J., Buckner, S. A. (1998). AGANTG: A Microsoft Excel 5.0-visual basic routine for the analysis of dose-response data. Analyst. 123, 1661-1668), a four parameter curve fitting program similar to “Allfit” (DeLean, A., Munson, P. J., Rodbard, D. (1980). Simultaneous analysis of families of sigmoidal curves: application to bioassay, radioligand assay, and physiological dose-response curves. Am. J. Physiol. 235, E97-102). Agonist potencies were indexed to PE and expressed as the negative logarithm (pD2). Each tissue was used for only one test agonist. For antagonists, the test agent was allowed a 30 minute exposure time before a second PE curve was started. The potency, expressed as a pA2, was calculated according to the method of Arunlakshana, O., Schild, H. O. (1959), Some quantitative uses of drug antagonists. […] The individual tissues were exposed to only one concentration of the test antagonist. The regression lines of the Schild plots were analyzed using least squares regression (Snedecor, G. W., Cochran, W. G., (1980). In Statistical methods, 7th edition, Iowa State University Press, Ames, Iowa).
(§6) Male Sprague Dawley rats (350-450 g) were sedated with CO2 and decapitated. The entire thoracic aorta was removed and immediately placed into Krebs Ringer bicarbonate solution as described above. The aorta was cleaned of extraneous tissue and the endothelium removed by passing a 100 mm length of PE-160 tubing through the lumen. The aorta was cut into 3-4 mm rings and mounted in 10 ml isolated tissue baths at 37° C.
Series [6] has the same target.
Source text: as §4, §5, §6
For series [7], the target named is T3, α1B adrenoceptor subtype (rat spleen). The note with it: for type of antagonism at α1B: based on slope and regression (r) of Schild plot; for α1B r (regression of Schild plot) / α1B slope (Schild plot): rat spleen.
Source text: as §2, §3

The target in series [8] is T4, α1d adrenoceptor (rat receptor expressed in mouse fibroblasts) (Rattus norvegicus, UniProt P23944).
T4 construct: expressed in transfected cells; host or cells: mouse fibroblasts
T4 sequence (P23944 1-561): T2 sequence (P23944 1-561)
In words: Radioligand binding, α1d (rat receptor expressed in mouse fibroblasts), [3H]-prazosin.

Series [9] addresses T5, α1b adrenoceptor (hamster receptor expressed in mouse fibroblasts) (Mesocricetus auratus, UniProt P18841).
T5 construct: expressed in transfected cells; host or cells: mouse fibroblasts
T5 sequence (P18841 1-515): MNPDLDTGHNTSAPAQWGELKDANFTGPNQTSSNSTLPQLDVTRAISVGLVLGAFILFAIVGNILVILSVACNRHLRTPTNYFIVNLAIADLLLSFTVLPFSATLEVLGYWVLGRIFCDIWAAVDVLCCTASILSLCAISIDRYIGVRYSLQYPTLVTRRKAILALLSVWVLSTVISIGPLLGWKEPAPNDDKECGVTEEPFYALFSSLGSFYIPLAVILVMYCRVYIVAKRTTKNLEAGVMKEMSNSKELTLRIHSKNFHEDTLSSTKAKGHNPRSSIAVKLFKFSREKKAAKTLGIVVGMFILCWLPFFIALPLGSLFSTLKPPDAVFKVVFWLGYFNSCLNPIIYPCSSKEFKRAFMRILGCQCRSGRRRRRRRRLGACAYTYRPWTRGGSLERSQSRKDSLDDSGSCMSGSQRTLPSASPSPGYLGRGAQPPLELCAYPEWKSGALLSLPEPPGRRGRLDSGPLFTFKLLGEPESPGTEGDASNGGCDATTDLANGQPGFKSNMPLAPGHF
The experiment in a line: Radioligand binding, α1b (hamster receptor expressed in mouse fibroblasts), [3H]-prazosin.

The target in series [10] is T6, α1A adrenoceptor (rat submaxillary gland) (Rattus norvegicus, UniProt P43140).
T6 construct: α1A (rat submaxillary gland); from tissue; host or cells: rat submaxillary gland
T6 sequence (P43140 1-466): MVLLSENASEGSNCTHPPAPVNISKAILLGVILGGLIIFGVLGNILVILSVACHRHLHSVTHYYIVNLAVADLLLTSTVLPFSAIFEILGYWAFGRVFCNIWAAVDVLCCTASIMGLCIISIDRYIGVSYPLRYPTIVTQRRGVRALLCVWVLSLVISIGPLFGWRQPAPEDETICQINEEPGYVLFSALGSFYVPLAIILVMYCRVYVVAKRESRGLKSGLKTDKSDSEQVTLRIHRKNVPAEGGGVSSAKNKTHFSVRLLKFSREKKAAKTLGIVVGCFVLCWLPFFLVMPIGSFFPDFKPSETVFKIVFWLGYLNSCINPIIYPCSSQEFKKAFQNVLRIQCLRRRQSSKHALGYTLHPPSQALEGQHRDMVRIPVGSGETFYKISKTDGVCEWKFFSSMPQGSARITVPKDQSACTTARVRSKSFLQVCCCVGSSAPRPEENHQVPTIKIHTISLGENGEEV
The experiment in a line: Radioligand binding, α1A (rat submaxillary gland), [3H]-prazosin.

Where [11] appears, read: i.v., anesthetized female Beagle dogs, mean ± S.E.M.
Where [12] appears, read: i.v., anesthetized female Beagle dogs, dose producing 20 mmHg increase in MAP, mean ± S.E.M.

pKi: −log10 of the molar value. Where two headings read alike, the source gives them in different places.

As for `CS(=O)(=O)Nc1c(O)ccc2c1CCCC2C1=NCCN1` (centres unmarked) [Compound A-61603, reference compound], the “MAP ED20 mmHg” value in series [1] (female, Beagle, dog, in vivo, iv) turned out to be 0.27 ± 0.05 nmol/kg. The “IUP ED5 mmHg” value in series [1] (setting [11]) is given as 0.16 ± 0.02 nmol/kg. For the same compound, the α1A efficacy in series [2] is 88%. This compound displayed a α1D efficacy in series [3] of 100%.

For `CCS(=O)(=O)Nc1cccc(Cc2c[nH]cn2)c1C` [Compound A-286569], the “α1B pD2” value in [4] (agonist potency) was “inactive”. Moreover, in series [5], the “type of antagonism at α1D” value is recorded as “non-competitive antagonist”, the “α1D r (regression of Schild plot)” value was found to be 0.5 and the “α1D slope (Schild plot)” value worked out at 1.1. The same compound showed a Kb in [6] of 6.31 µM. The “Selectivity ratio MAP ED20/IUP ED5” value in [1] was 5.6. Further, the “IUP ED5 mmHg” value in [1] (setting [11]) amounted to 41.9 ± 6.2 nmol/kg. Also, the “MAP ED20 mmHg” value in series [1] (setting [12]) was found to be 201.6 ± 67 nmol/kg. Also, in series [7], the Kb was 15.8 µM, the “type of antagonism at α1B” value is on record as “non-competitive antagonist”, the “α1B r (regression of Schild plot)” value is on record as 0.6 and the “α1B slope (Schild plot)” value was determined as 1.3. Also, the α1A efficacy in series [2] worked out at 69%. Besides, in series [3] (agonist potency), the “α1D pD2” value is “inactive”.

With `CCS(=O)(=O)Nc1cccc(Cc2c[nH]cn2)c1` [Compound A-286666], in [4] (agonist potency), the “α1B pD2” value was “inactive”. Moreover, in [5], the “type of antagonism at α1D” value is “competitive antagonist”, the “α1D r (regression of Schild plot)” value amounted to 0.9 and the “α1D slope (Schild plot)” value is 0.93. This compound gave a Kb in series [6] of 0.316 µM. Besides, in series [7], the Kb is 1.58 µM, the “type of antagonism at α1B” value is “competitive antagonist”, the “α1B r (regression of Schild plot)” value is given as 0.9 and the “α1B slope (Schild plot)” value stood at 0.81. This compound also gave a α1A efficacy in series [2] of 80%. For the same compound, the “α1D pD2” value in series [3] (agonist potency) was “inactive”.

For orientation: pKi means the Ki on a negative log10 scale, so that one unit is a factor of ten. In the case of `C[C@@H](N)[C@H](O)c1ccccc1` [PPA, phenylpropanolamine], the EC50 in series [4] (agonist potency, read-out: α1B pD2 (converted)) was 251 µM; in series [2] (agonist potency, negative log of EC50, read-out: α1A pD2 (converted)), 200 µM; in [3] (agonist potency, read-out: α1D pD2 (converted)), 63.1 µM. The same compound showed a α1B efficacy in series [4] (percent of phenylephrine (100%) contraction) of 34%. Moreover, the pKi in series [8], in series [9] and in series [10] was below 5.00 throughout. Further, the “Selectivity ratio MAP ED20/IUP ED5” value in series [1] is 0.4. For the same compound, the “IUP ED5 mmHg” value in [1] (setting [11]) is 1092 ± 384 nmol/kg. Moreover, the “MAP ED20 mmHg” value in [1] (setting [12]) is listed as 331 ± 80 nmol/kg. In [2], this compound gave a α1A efficacy of 68%. This compound also had a α1D efficacy in [3] of 91%.

The values are drawn from patent US20020183357A1, “Use of alpha- 1- alpha adrenoceptor agonists with alpha-1-Beta antagonism for the treatment of stress urinary incontinence” (priority 2000, published 2002).
